This series in a line: photoluminescence quantum yield (fraction); solvent given as SMILES.
[1] abbreviates: in O=P(c1ccccc1)(c1ccccc1)c1ccccc1Oc1ccccc1P(=O)(c1ccccc1)c1ccccc1.

Data on 48 molecules can be found in the Deep4Chem optical property database.

SMILES strings stand for the structures.

As to `CCC12C(=C3C(=C4c5ccc(-c6ccc(C(C)=O)s6)cc5S(=O)(=O)C41CC)C(F)(F)C(F)(F)C3(F)F)c1ccc(-c3ccc(C(C)=O)s3)cc1S2(=O)=O` (configuration not stated), the photoluminescence quantum yield (in C1COCCO1) was 0.61.
Where the note is “in CC#N”, `C[n+]1cc2ccc3c[n+](C)c4ccccc4c3c2c2ccccc21` gave a photoluminescence quantum yield of 0.066.
For the setting “in O”, `CC[n+]1nc2cc3c4c(c2c2cc(F)ccc21)CCCN4CCC3` returned a photoluminescence quantum yield of 0.34.
Regarding `c1ccc(C2(c3ccccc3)c3ccc4ccc5ccccc5c4c3-c3c2ccc2ccc4ccccc4c32)cc1`, the photoluminescence quantum yield (in ClCCl) is 0.4.
With `COc1cc2c(cc1-c1ccc(C(F)(F)F)cc1)Cc1c3c(c4c(c1-2)-c1cc(OC)c(-c2ccc(C(F)(F)F)cc2)cc1C4)C(=O)N(CCC(C)C)C3=O`, the photoluminescence quantum yield (in C1CCOC1) was 0.45.
As to `CCn1c2ccccc2c2cc(-c3cc(-c4ccc5c(c4)c4ccccc4n5CC)nc(-c4ccc(OC)cc4)n3)ccc21`, the photoluminescence quantum yield turned out to be 0.45 (in C1CCOC1); 0.56 (in CCOC(C)=O); 0.68 (in CN(C)C=O); 0.54 (in Cc1ccccc1); 0.42 (in ClCCl).
For `CC(C)[Si](C#Cc1c2cc3ccccc3cc2c(C#C[Si](C)(C)C)c2cc3ccccc3cc12)(C(C)C)C(C)C`, where the note is “in ClCCl”, the photoluminescence quantum yield was 0.13.
`CCCCn1c(-c2ccc(-c3ccc(-c4ccc(-c5n(CCCC)c6cc(C)ccc6[n+]5CCCC)cc4)cc3)cc2)[n+](CCCC)c2ccc(C)cc21` came in with a photoluminescence quantum yield (in O) of 0.78.
Under “in C1CCCCC1”, `COc1cccc(OC)c1-c1c2ccccc2c(-c2c(OC)cccc2OC)c2ccccc12` showed a photoluminescence quantum yield of 0.94.
Consider `[NH3+]c1cc([NH3+])cc(-c2nc3ccccc3s2)c1`, for which the photoluminescence quantum yield (in O) came out at 0.011.
`c1ccc2c(c1)Oc1ccccc1N2c1ccc(-c2nnc(-c3ccc(N4c5ccccc5Oc5ccccc54)cc3)o2)cc1`: the photoluminescence quantum yield was 0.431 (in Cc1ccccc1) and 0.87 under setting [1].
Take `COc1ccc(-c2cc(-c3ccc(N(C)C)cc3)nc(-c3ccccc3)n2)cc1`: the photoluminescence quantum yield (in ClC(Cl)Cl) was determined as 0.49.
On to `CCC1=C(C)C2=Cc3cc(I)c(I)n3[B-](F)(F)[N+]2=C1C`, for which the photoluminescence quantum yield amounted to 0.26 (in C1CCCCC1); 0.16 (in CC(C)=O); 0.2 (in CCO); 0.19 (in CCOC(C)=O); 0.17 (in CO); 0.12 (in OCC(F)(F)F).
With `O=C(O)c1ccccc1Nc1cccc(C(F)(F)F)c1`, the photoluminescence quantum yield reads like this: (in C1CCCCC1) 0.016; (in C1CCOC1) 0.016; (in C1COCCO1) 0.026; (in CC#N) 0.004; (in CCOC(C)=O) 0.014; (in CN(C)C=O) 0.006. Further, the photoluminescence quantum yield runs as follows: (in CO) 0.001; (in ClC(Cl)Cl) 0.022.
Consider `COOCc1noc(-c2ccccc2)c1Cl`, for which, under “in C1CCCCC1”, the photoluminescence quantum yield was found to be 0.006.
For the molecule `c1ccc2c(c1)CCc1c-2cnc2c1-c1ccccc1CC2`, the photoluminescence quantum yield is 0.665 (in C1CCOC1); 0.69 (in CC#N); 0.149 (in CCCCCC); 0.567 (in CCOC(C)=O); 0.141 (in CO); 0.227 (in CS(C)=O). The molecule also displayed a photoluminescence quantum yield (in Cc1ccccc1) of 0.513 and a photoluminescence quantum yield (in ClCCl) of 0.291.
With `O=C1c2ccc3c4ccc5c6c(ccc(c7ccc(c2c37)C(=O)N1c1ccc(Cl)cc1)c64)C(=O)N(c1ccc(Cl)cc1)C5=O`, the photoluminescence quantum yield (in CN(C)C=O) was 0.84.
Take `COc1ccc(-c2nc(-c3ccccc3O)c(-c3ccccc3O)n2-c2ccc(C)cc2)cc1`: the photoluminescence quantum yield reads like this: (in C1CCOC1) 0.01; (in CS(C)=O) 0.01; (in ClC(Cl)Cl) 0.01; (in ClCCl) 0.04.
In turn, `COc1ccc(C(=O)OCc2ccc3c4cccc5cccc(c6cccc2c63)c54)cc1` had a photoluminescence quantum yield (in CCO) of 0.93.
`COCCOCCOCCOCC(COCCOCCOCCOC)Oc1cc(/C=C/c2ccc(C=C3C(=O)c4ccccc4C3=O)cc2)c(OC(COCCOCCOCCOC)COCCOCCOCCOC)cc1/C=C/c1ccc(C=C2C(=O)c3ccccc3C2=O)cc1` came in with a photoluminescence quantum yield (in ClCCl) of 0.23.
On to `Oc1ccccc1-c1nc2c3cccnc3c3ncccc3c2n1-c1ccccc1`, for which the photoluminescence quantum yield (in Cc1ccccc1) was 0.001.
As for `CC1(C)c2ccccc2N(c2ccc3c(c2)-c2cc(N4c5ccccc5C(C)(C)c5ccccc54)ccc2P3(=O)c2ccccc2)c2ccccc21`, the photoluminescence quantum yield is 0.55 (in Cc1ccccc1) and 0.56 (in c1ccc2c(c1)c1ccccc1n2-c1ccc(-c2ccc(-n3c4ccccc4c4ccccc43)cc2)cc1).
For the molecule `CCN(CC)c1ccc2cc(-c3ccc(-c4ccc(-c5cc6ccccc6oc5=O)cc4)cc3)c(=O)oc2c1`, for the setting “in ClCCl”, the photoluminescence quantum yield was 0.59.
As for `Cc1nn(-c2ccccc2)c(C2=NN(c3ccc(Br)cc3)[C@@H](c3ccccc3)[C@@H]2c2ccccc2)c1C#N`, the photoluminescence quantum yield runs as follows: (in C1CCCCC1) 0.56; (in C1CCOC1) 0.65; (in C1COCCO1) 0.6; (in CC#N) 0.41; (in CCCCCCC) 0.43; (in CCO) 0.49. Further, the photoluminescence quantum yield is, setting by setting: (in CN(C)C=O) 0.6; (in CO) 0.34; (in O) 0.18; (in OCCO) 0.45.
`C(=C\c1nc2ccccc2[nH]1)/c1ccc(/C=C/c2nc3ccccc3[nH]2)cc1`: the photoluminescence quantum yield runs as follows: (in C1CCOC1) 0.855; (in CC#N) 0.679; (in CC(C)=O) 0.609; (in CN(C)C=O) 0.775; (in CO) 0.738; (in CS(C)=O) 0.63.
In turn, `F[B-]1(F)n2c(-c3ccccc3)cc(-c3ccccc3)c2N=C2C(c3ccccc3)=CC(c3ccccc3)=[N+]21` yielded a photoluminescence quantum yield (in CC#N) of 0.22 and a photoluminescence quantum yield (in ClC(Cl)Cl) of 0.34.
Consider `CCCC1(CCC)c2ccccc2-c2ccccc21`, for which the photoluminescence quantum yield (in C1CCCCC1) turned out to be 0.36.
Under “in Cc1ccccc1”, `Cc1ccc(N2C(c3ccccc3N)=NC(c3ccccc3)C2c2ccccc2)cc1` (configuration not stated) returned a photoluminescence quantum yield of 0.009.
Molecule `Cc1cc(C(F)(F)F)nc2c1ccc1nc(-c3ccc(F)c(F)c3)cn12` showed a photoluminescence quantum yield (in CC#N) of 0.84, a photoluminescence quantum yield (in CCCCOC(C)=O) of 0.78, a photoluminescence quantum yield (in CO) of 0.83 and a photoluminescence quantum yield (in ClC(Cl)Cl) of 0.96.
On to `C(=C\c1ccc(/C=C/c2ccc(N(c3ccccc3)c3ccccc3)cc2)cc1)/c1ccc(/C=C/c2ccc(N(c3ccccc3)c3ccccc3)cc2)cc1`, for which, for the setting “in ClCCl”, the photoluminescence quantum yield was determined as 0.84.
Turning to `N#Cc1c(N2CCCCC2)cc(-c2ccc3c(c2)OCO3)c2c1-c1cccc3cccc-2c13`, the photoluminescence quantum yield (in O) was found to be 0.3.
`O=C1/C(=C2\Sc3ccc(S(=O)(=O)O)cc3C2=O)Sc2ccc(S(=O)(=O)O)cc21`: the photoluminescence quantum yield is, setting by setting: (in CN(C)C=O) 0.25; (in CO) 0.008; (in CS(C)=O) 0.008; (in O) 0.005.
Regarding `O=C(c1ccncc1)c1ccc(-n2c3ccccc3c3ccccc32)cc1`, the photoluminescence quantum yield by setting is: (in Cc1ccccc1) 0.012; (in c1cc(-c2cccc(-n3c4ccccc4c4ccccc43)c2)cc(-n2c3ccccc3c3ccccc32)c1) 0.38.
`CCC1(CC)c2cc(B(c3c(C)cc(C)cc3C)c3c(C)cc(C)cc3C)ccc2-c2c1c1c(c3c2C(CC)(CC)c2cc(B(c4c(C)cc(C)cc4C)c4c(C)cc(C)cc4C)ccc2-3)C(CC)(CC)c2cc(B(c3c(C)cc(C)cc3C)c3c(C)cc(C)cc3C)ccc2-1`: the photoluminescence quantum yield (in C1CCOC1) is 0.34.
In the case of `N#Cc1c(C#N)c2ccccc2c2ccccc12`, the photoluminescence quantum yield (in ClC(Cl)Cl) was 0.17.
With `COC(=O)c1cc(=O)n(Cc2ccccc2)c2cc(-c3ccc(N(C)C)cc3)sc12`, the photoluminescence quantum yield was 0.05 (in CC#N) and 0.98 (in ClCCl).
Take `CC1(C)c2ccccc2-n2c(-c3ccc(N4c5ccccc5Oc5ccccc54)cc3)nc3cccc1c32`: the photoluminescence quantum yield (in Cc1ccccc1) came out at 0.31 and the photoluminescence quantum yield under setting [1] was 0.71.
As to `CCCCCCN1C(=O)c2cccc3c(-c4ccc(OC)s4)ccc(c23)C1=O`, for the setting “in ClC(Cl)Cl”, the photoluminescence quantum yield is 0.65.
For the setting “in ClCCl”, `C(#Cc1ccc2c(c1)c1cc(C#Cc3ccccc3)ccc1n2-c1cc2ccccc2c2ccccc12)c1ccccc1` had a photoluminescence quantum yield of 0.32.
For `c1ccc(-c2nc3sc4ccccc4c3s2)nc1`, where the note is “in CS(C)=O”, the photoluminescence quantum yield was determined as 0.82.
For the setting “in Cc1ccccc1”, `CCCC1=Cc2nc1ccc1[nH]c(cc1CCC)c1nc(ccc3[nH]c2cc3CCC)C(CCC)=C1` came in with a photoluminescence quantum yield of 0.38.
On to `c1ccc(-c2nc(-c3ccccc3)nc(-c3cc(-n4c5ccccc5c5ncccc54)cc(-n4c5ccccc5c5ncccc54)c3)n2)cc1`, for which the photoluminescence quantum yield (in O=P(c1ccccc1)(c1ccccc1)c1ccc2oc3ccc(P(=O)(c4ccccc4)c4ccccc4)cc3c2c1) turned out to be 0.21.
As for `C(=C\c1ccccn1)/c1ccc(N(c2ccc(/C=C/c3ccccn3)cc2)c2ccc(-c3nc4ccccc4nc3-c3ccc(N(c4ccc(/C=C/c5ccccn5)cc4)c4ccc(/C=C/c5ccccn5)cc4)cc3)cc2)cc1`, the photoluminescence quantum yield (in C1CCOC1) turned out to be 0.55.
The molecule `C=Cc1cc2ccc(N(CC)CC)cc2oc1=O` yielded a photoluminescence quantum yield (in CC#N) of 0.98.
For `N#Cc1c(-n2c3ccccc3c3ccccc32)cc(N2c3ccccc3C(c3ccccc3)(c3ccccc3)c3ccccc32)cc1-n1c2ccccc2c2ccccc21`, the photoluminescence quantum yield (in Cc1ccccc1) was 0.27.
Consider `CC(C)(C)c1ccc(-c2cnc3cccc(-c4ccccc4)n23)cc1`, for which the photoluminescence quantum yield (in ClCCl) was found to be 0.31.
For the molecule `COC(=O)C(NC(=O)OC(C)(C)C)c1ccc2oc(-c3cc(OC)ccc3OC)nc2c1` (configuration not stated), the photoluminescence quantum yield came out at 0.51 (in CC1CCCCC1), 0.35 (in CC#N) and 0.37 (in CO).
Take `F[B-]1(F)n2c(c3c(c2-c2ccccc2)C2C=CC3CC2)C(c2ccccc2)=C2C3=C(C(c4ccccc4)=[N+]21)C1C=CC3CC1` (configuration not stated): for the setting “in ClCCl”, the photoluminescence quantum yield amounted to 0.87.
